According to patent US12343349B2, “Imipramine for use as an inhibitor of Fascin1 overexpression” (FUNDACION UNIVERSITARIA SAN ANTONIO, priority 2018, dated 2025):
Where two headings read alike, the source gives them in different places.

Columns and labels:
HCT116 cell line = experiment: Immunofluorescence of fascin1 localization and lamellipodia formation; format: cell-based, human; conditions: for filopodia lamellipodium formation: 24 h, migrastatin 100 μM, imipramine 20 μM, PD98059 50 μM, EGF 10 ng/ml; for Lamellipodia protrusion number: data not shown
Experimental: In order to assess the effect of imipramine on fascin1 localization and lamelipodia formation an immunofluorescence assay was performed. Round coverslips (Thermo Fisher, Waltham, MA USA) were seeded with HCT116 cell line in the presence of 10% FBS. After cells reached 100% confluence, serum supplemented medium was removed and replaced with fresh serum free medium for 24 h. Artificial wounding was performed by transversally dragging a sterilized razor blade on the central area of the coverslips. Coverslips were then placed in 6-well plate with 2 mL serum free DMEM and 100 μM migrastatin, 20 μM imipramine, Epidermal Growth Factor (EGF) 10 ng/ml and MEK inhibitor PD98059 50 μM (MEKi) (both from Sigma-Aldrich, St Louis, MO, USA) for 24 h. Cells were then fixed with Bouin (for fascin1 protein) or 4% formaldehyde (for actin protein) and subsequently permeabilized in a 0.3% Triton X-100/PBS solution, and then exposed to blocking buffer for 30 min. Samples were incubated for 1 h with anti-fascin1 antibody (1/250) (55K-2 clone; Santa Cruz Biotechnology, Heidelberg, Germany) or anti-β actin antibody (1/1000) (Sigma-Aldrich, St Louis, MO, USA) in a wet chamber.
Appropriate fluorescent-labelled primary antibodies were incubated later with Alexa fluor 488-conjugated anti-mouse IgG (from donkey) (1/400) or Alexa fluor 594-labelled phalloidin, respectively (1/1000) (Molecular Probes, Thermo Fisher Scientific, Waltham, MA USA) and Hoechst 33258 (Fluka, Biochemika, Sigma-Aldrich, St Louis, MO, USA) for 30 min at room temperature and darkness. Samples were examined and representative images were taken with a confocal microscope (LSM 510 META from ZEISS, Jena, Germany). The effect of imipramine on the fascin1 localization and the reorganization of the actin cytoskeleton, which includes the protrusion of the lamellipodium at the cell front filopodia formation and fascin1 localization, was assessed by immunofluorescence.

[1] = system: HCT-116 colorectal cancer cell line; experiment: Cell migration (wound healing) assay, HCT-116; format: cell-based, human; conditions: for Migration (%): slope 4-7 h relative to control, imipramine 20 μM, migrastatin 100 μM
Experimental: (§1) Except for SW-480, imipramine effect was more pronounced than migrastatin, especially for DLD-1. Cell migration was studied with the three cell lines by performing the wound healing assay in the presence of 5% FBS. Cancer colorectal cells (50,000 cells) were plated in low 35-mm-dishes with culture inserts (Ibidi, Martinsried, Germany). After appropriate cell attachment and monolayer formation (around for 24 h), inserts were then removed with sterile forceps to create a wound field of approximately 500 μm, according to the manufacturer protocol. Detached cells were gently removed with phosphate buffered saline (PBS, Dubelco) before the addition of drugs. Confluent cells were incubated in one of the following treatments: 100 μM migrastatin (AnalytiCon Discovery, cat. No. NP-006108), and 20 μM imipramine ((purchased via Molport, Letonia) and, control dishes that were incubated in the presence of 0.1% DMSO. Cells were then allowed to migrate in a cell culture incubator for 24 h. At 0, 3, 5 and 7 h (linear growth phase), 10 fields of the injury area were photographed with an inverted and phase contrast microscopy at ×10 magnification incorporating a CCD camera. For each timepoint, the area uncovered by cells was determined by an image processing free software analysis with Image J software program.
(§2) The migration speed of the wound closure is given as the percentage of the recovered area at each time point, relative to the initially covered area (0 h). The velocity of wound closure (%/h) was calculated according to the formula: Slope (%/h)=((% covered area t_x)−(% covered area t_0))/((tx−t_0)). Slopes are then expressed as percentages relative to control conditions.

HCT116 cells = experiment: Transwell invasion assay on Matrigel; format: cell-based, human; conditions: 30 hours; migrastatin 100 μM, imipramine 20 μM
Experimental: Tumor cell invasion not only involved the acquisition of migration properties but also the ability to degrade the extracellular matrix (ECM). For that reason, we performed a Transwell assay on Matrigel which resembles the ECM composition. The invasive capacities of HCT116 cells were determined using Cytoselect TM 24 Well Cell Invasion Assay (Basement Membrane Colorimetric Format) with coated Transwell chambers (8 μm pore size). Briefly, cells were resuspended with serum-free medium and treated with corresponding inhibitors (migrastatin 100 μM and, imipramine 20 μM). Cells (9.5×10^4) were seeded into the upper chamber, and in the lower chamber 500 μL of DMEM containing 10% FBS were added. After 30 hours of incubation, cells that remained on the upper chamber were scraped away with a cotton swab, and cells that migrated to the bottom of the filter were stained with the cell stain solution. The number of invaded cells was photographed under an inverted phase contrast microscope and quantified D.O.D by a spectrophotometer at λ=560 nm. Also we analyzed the invasive cells using the Image J software. […] A) Invasiveness of cells after treatment with different drugs. Pictures were taken under an inverted phase contrast microscope. The magnification was ×200 and scale bars=50 μm. B) Quantification of the invasive cells D.O. by a spectrophotometer at A=560 nm. […]

[2] = system: DLD1 colorectal cancer cell line; experiment: Cell migration (wound healing) assay, DLD1; format: cell-based, human; conditions: for Migration (%): DLD1, slope 4-7 h relative to control, imipramine 20 μM, migrastatin 100 μM
Experimental: as §1, §2

fascin1 [3] = target: T1, fascin1 (Homo sapiens, UniProt Q16658); experiment: Fluorescence titration; format: binding; conditions: 25° C., 10% DMSO, 100 mM NaCl, 20 mM Hepes, pH 7.4; read-out: dissociation constant Kd
T1 construct: purchased Hypermol, Bielefeld, Germany 8411-02
Experimental: Fascin1 was extensively dialized against the appropriate buffer prior to each titration experiment. Fascin1 concentration was determined by measuring absorbance at 280 nm using an extinction coefficient of 67840 cm-1-M-1. Fluorescence titration experiments were performed in a Cary Eclipse spectrofluorimeter (Varian Inc.). A 15 μM (14.7 μM) fascin1 solution was titrated with each compound by adding increasing volumes of concentrated solutions. Emission spectra were recorded between 307 and 500 nm at 25° C. in 10% DMSO, 100 mM NaCl, 20 mM Hepes, pH 7.4, with the excitation wavelength fixed at 280 nm. Binding isotherms were generated using either the changes in spectral area or in spectral centre of mass (CM), depending whether the change was only in fluorescence intensity or was also in the maximum emission wavelength.
The resulting curves were fitted using ORIGIN 7.0 (Microcal Inc.) and a one-site equilibrium binding model, according to the following equation:
[formula] Ff and Fb are the fluorescence signal (area or CM) of free and bound fascin1 and PT and LT are the total protein and ligand concentration, respectively, at each addition point. Tm values were measured as the minimum of the first derivative of the thermal unfolding profile. […]

[4] = system: SW-480 colorectal cancer cell line; experiment: Cell migration (wound healing) assay, SW-480; format: cell-based, human; conditions: for Migration (%): slope 4-7 h relative to control, imipramine 20 μM, migrastatin 100 μM
Experimental: as §1, §2

[5] = system: colorectal cancer cell lines (DLD-1 and HCT-116) injected in zebra fish; experiment: Zebra fish larvae invasion model (xenograft); format: in vivo; conditions: DLD-1 and HCT-116 cells treated and injected in larvae
Experimental: Finally, in order to find out whether the anti-invasive properties of imipramine could be extrapolable to an animal system, the well-established zebra fish larvae invasion model was used. A xenograft assay was carried out by stained with fluorescent CM-Dil (Vibrant, Invitrogen) two colorectal cancer cell lines (DLD-1 and HCT-116) and injected in zebra fish. The result obtained is referred to the percentage of cell invasion.
Injection and migration of different colorectal cancer cell lines in zebra fish model (A). Two colorectal cancer cell lines (DLD-1 and HCT-166) were treated with migrastatin and imipramine and injected in zebra fish larvae.

fascin1 [6] = target: T1, fascin1; experiment: Differential Scanning Fluorimetry (Thermofluor) thermal shift assay; format: binding; conditions: for ΔTm at 1000 µM: vs free fascin1
Experimental: Differential Scanning Fluorimetry (Thermofluor) assays were performed using a Biorad C1000 Touch Thermal Cycler CFX96 RT-PCR system in a 96-well format.
Imipramine was prepared at 10 mM in 100% DMSO and added to each well to a final concentration of 1 mM and 10% DMSO. Three replicates with six internal controls, containing only free protein in 10% DMSO, were included in the 96-well plates. The PCR plates were covered and subsequently shaken, centrifuged, incubated for 2 min at 20° C. inside the RT-PCR machine and heated from 20 to 100° C. at a 1° C./min scan-rate. Fascin1 thermal denaturation profiles were obtained recording the fluorescence intensity for the FAM, HEX and T-Red predefined filters. The derivative of the fluorescence curve was used to determine the Tm. Changes in Tm associated to ligand binding were estimated taking the average Tm value derived from the free protein internal controls.
[formula] Ff and Fb are the fluorescence signal (area or CM) of free and bound fascin1 and PT and LT are the total protein and ligand concentration, respectively, at each addition point. Tm values were measured as the minimum of the first derivative of the thermal unfolding profile.

[7] = system: HCT-116 colorectal cell line; experiment: Myoma organotypic invasion model; format: cell-based, human; conditions: HCT-116, 14 days, compared to control
Experimental: To improve the reliability of the experimental model compared to the real tumor microenvironment, cancer cell invasion was assessed in the myoma organotypic cultures and performed according to the previously published myoma model (Åström, P., Heljasvaara, R., Nyberg, P., Al-Samadi, A., & Salo, 2018). Briefly, uterine leiomyoma tissues were obtained from routine surgery after informed consent of the donors and their use approved by The Ethics Committee of the Oulu University Hospital. The myoma tissue was sliced into 5 mm and disks were made with an 8-mm biopsy punch (Kai Industries Co., Gifu, Japan). Myoma disks were pre-incubated in 100 μM MGS, 10 μM and 20 μM imipramine or 0.1% DMSO-DMEM treatments at +4° C. for 48 h. The myoma disks were placed into Transwell inserts (diameter 6.5 mm; Corning Incorporated, Corning, NY) and 700,000 cells in 50 μl of media were added on top of each myoma disk. The cells were allowed to attach overnight and the myoma disks were transferred onto uncoated nylon disks resting on curved steel grids in 12-well plates with 12 well plates with 1 ml of media plus migrastatin and imipramine in each well. The cancer cells were left to invade the myoma disks for 14 days, while changing the treatment media every 3 days. Subsequently the myoma discs were fixed with 4% neutral buffered formalin at room temperature for 24 h, and processed for histology. […]

Molecule	filopodia lamellipodium formation (HCT116 cell line)	inhibition of migration ([1]; 20 μM, p<0.05)	Migration (%) [1] [%]	HCT-116 cell invasive ability (transwell) (HCT116 cells)	Migration (%) [2] [%]	inhibition of migration ([2]; DLD-1, 20 μM, p<0.05)	Kd (fascin1 [3]) [µM]	Lamellipodia protrusion number (HCT116 cell line)	inhibition of migration ([4]; 20 μM, p<0.05)	Migration (%) [4] [%]	cell invasion in zebra fish larvae [5]	Tm, FAM (fascin1 [6]; 1 mM compound, 2 μM fascin1, FAM filter) [°C]	ΔTm at 1000 µM (fascin1 [6]; 1 mM compound, 2 μM fascin1, FAM filter, read-out: ΔTm, FAM) [°C]	Tm, HEX (fascin1 [6]; 1 mM compound, 2 μM fascin1, HEX filter) [°C]	ΔTm at 1000 µM (fascin1 [6]; 1 mM compound, 2 μM fascin1, HEX filter, read-out: ΔTm, HEX) [°C]	Tm, TRed (fascin1 [6]; 1 mM compound, 2 μM fascin1, T-Red filter) [°C]	ΔTm at 1000 µM (fascin1 [6]; 1 mM compound, 2 μM fascin1, T-Red filter, read-out: ΔTm, TRed) [°C]	increase in Tm (fascin1 [6]; text summary over filters)	area of invasion [7]	depth of invasion [7]
COc1cccc(-c2cc(=O)c3ccccc3o2)c1N [PD98059]	absent																			
CN(C)CCCN1c2ccccc2CCc2ccccc21 [imipramine, 3-(10,11-dihydro-5H-dibenzo[b,f]azepin-5-yl)-N,N-dimethylpropan-1-amine]	absent	remarkable inhibition of migration	43.25	inhibit tumor cell migration	23.21	remarkable inhibition of migration	390	significantly lower	remarkable inhibition of migration	77.52	diminishing cell invasion is evident	58.3 ± 0.6	2.7 ± 1.1	58.0 ± 0.0	2	58.0 ± 0.0	1.8 ± 0.6	about 2 °C	inhibits	inhibits
CO[C@H]1/C=C/CC/C=C/C(=O)O[C@H]([C@H](C)C(=O)CCCC2CC(=O)NC(=O)C2)/C(C)=C\[C@@H](C)[C@@H]1O [migrastatin]	absent		44.59	inhibit tumor cell migration	67.91			significantly lower		70.34										
EGF: Epidermal Growth Factor (migration stimulator)	prominent filopodia lamellipodium formation																			
